Structures are written as SMILES. Bounds are passed on as bounds.

Assay in all cases: TG Activity Assays
Test [1] concerns the target T1, Protein-glutamine gamma-glutamyltransferase 6 (Homo sapiens, UniProt O95932).
T1 sequence (O95932 whole entry): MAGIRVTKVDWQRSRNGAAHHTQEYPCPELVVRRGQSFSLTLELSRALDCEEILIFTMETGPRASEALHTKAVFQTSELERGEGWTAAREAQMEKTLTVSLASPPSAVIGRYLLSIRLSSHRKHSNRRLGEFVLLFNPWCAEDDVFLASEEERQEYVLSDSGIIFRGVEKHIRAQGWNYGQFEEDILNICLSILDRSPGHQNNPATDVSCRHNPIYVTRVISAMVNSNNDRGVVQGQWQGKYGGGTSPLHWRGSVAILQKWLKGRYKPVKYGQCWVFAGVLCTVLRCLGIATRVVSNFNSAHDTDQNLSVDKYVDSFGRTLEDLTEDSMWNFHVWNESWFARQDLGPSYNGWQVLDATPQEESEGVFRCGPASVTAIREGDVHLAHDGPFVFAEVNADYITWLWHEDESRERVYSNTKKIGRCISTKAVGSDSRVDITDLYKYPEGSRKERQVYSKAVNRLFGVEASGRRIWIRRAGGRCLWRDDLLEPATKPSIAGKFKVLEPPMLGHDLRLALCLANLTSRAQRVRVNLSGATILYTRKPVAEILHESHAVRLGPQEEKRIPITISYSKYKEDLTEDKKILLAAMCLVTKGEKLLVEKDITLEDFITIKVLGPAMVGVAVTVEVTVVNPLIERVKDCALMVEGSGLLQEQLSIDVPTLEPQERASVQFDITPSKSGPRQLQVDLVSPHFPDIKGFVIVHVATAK
As to the method: (§1) The incorporated biotinylated peptides were measured using horseradish peroxidase-conjugated streptavidin and then measured using o-phenylenediamine dihydrochloride substrates. The absorbance was measured at 490 nm using a microplat

Test [2] has as its target T2, Protein-glutamine gamma-glutamyltransferase E (Homo sapiens, UniProt Q08188).
T2 sequence (Q08188 whole entry): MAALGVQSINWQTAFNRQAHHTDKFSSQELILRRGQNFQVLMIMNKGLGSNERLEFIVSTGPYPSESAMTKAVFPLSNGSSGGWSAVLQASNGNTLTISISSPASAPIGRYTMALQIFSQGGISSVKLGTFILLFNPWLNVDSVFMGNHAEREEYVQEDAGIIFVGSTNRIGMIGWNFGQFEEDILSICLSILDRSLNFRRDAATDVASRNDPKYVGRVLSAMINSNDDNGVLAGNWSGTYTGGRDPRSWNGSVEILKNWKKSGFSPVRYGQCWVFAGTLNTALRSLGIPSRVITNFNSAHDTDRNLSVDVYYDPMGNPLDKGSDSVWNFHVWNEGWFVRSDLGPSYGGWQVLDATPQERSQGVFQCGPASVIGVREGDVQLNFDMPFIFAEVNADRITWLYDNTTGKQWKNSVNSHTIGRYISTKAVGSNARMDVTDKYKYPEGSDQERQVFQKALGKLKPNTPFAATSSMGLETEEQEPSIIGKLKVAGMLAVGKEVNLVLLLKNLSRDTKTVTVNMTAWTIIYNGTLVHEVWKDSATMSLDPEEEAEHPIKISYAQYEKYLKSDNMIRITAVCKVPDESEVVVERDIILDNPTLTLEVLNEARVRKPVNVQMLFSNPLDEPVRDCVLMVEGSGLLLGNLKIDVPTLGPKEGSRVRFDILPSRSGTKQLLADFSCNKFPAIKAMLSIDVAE
The procedure:
as §1

Test [3] addresses T3, Protein-glutamine gamma-glutamyltransferase K (Homo sapiens, UniProt P22735).
T3 sequence (P22735 whole entry): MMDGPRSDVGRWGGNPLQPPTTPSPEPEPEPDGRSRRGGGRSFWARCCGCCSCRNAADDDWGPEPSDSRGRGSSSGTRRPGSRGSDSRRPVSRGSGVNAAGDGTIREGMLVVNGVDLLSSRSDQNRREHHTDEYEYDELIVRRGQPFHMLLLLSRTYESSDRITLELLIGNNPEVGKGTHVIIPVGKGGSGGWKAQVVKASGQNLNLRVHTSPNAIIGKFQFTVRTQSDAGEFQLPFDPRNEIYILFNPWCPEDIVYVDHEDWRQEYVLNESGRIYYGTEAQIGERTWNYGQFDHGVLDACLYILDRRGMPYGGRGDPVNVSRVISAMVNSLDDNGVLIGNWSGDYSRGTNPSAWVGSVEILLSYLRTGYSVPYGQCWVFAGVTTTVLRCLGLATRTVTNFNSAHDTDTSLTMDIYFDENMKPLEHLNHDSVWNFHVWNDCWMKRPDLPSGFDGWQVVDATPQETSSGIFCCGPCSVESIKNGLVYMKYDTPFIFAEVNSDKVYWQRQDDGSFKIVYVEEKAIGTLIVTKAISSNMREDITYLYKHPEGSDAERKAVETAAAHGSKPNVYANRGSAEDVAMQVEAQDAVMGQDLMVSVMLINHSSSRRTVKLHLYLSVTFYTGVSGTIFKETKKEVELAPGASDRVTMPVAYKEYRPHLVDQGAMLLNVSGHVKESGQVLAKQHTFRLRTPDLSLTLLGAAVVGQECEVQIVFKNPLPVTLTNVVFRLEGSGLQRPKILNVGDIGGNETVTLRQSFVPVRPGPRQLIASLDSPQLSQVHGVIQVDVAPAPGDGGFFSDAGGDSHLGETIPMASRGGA
The procedure: as §1

Test [4] addresses T4, Protein-glutamine gamma-glutamyltransferase 2 (Homo sapiens, UniProt P21980).
T4 sequence (P21980 whole entry): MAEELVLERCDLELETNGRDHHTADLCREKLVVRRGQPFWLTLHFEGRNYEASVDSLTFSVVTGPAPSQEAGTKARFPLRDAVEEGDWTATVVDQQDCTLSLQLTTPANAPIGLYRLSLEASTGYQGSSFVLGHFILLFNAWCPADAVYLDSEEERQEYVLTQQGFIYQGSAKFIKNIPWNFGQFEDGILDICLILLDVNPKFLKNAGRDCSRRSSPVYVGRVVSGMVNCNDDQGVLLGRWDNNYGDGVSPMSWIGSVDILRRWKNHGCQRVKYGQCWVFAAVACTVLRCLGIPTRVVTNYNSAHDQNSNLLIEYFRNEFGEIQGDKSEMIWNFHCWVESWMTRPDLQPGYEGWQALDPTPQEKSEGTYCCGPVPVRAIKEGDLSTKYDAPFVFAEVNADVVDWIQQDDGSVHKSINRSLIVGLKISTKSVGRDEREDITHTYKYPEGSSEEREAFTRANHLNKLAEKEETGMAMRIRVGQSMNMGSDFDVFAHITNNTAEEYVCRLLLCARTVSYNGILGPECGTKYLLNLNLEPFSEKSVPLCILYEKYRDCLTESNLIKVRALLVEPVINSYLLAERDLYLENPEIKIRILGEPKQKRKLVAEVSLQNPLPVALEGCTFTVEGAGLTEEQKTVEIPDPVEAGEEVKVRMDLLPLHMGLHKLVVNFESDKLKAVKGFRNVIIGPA
As to the method: as §1

`CN(C)c1cccc2c(S(=O)(=O)N3CCN(C(=O)CNC(=O)C[S+](C)C)CC3)cccc12` [[2-[[2-[4-[[5-(Dimethylamino)-1-naphthyl]sulfonyl]piperazin-1-yl]-2-oxo-ethyl]amino]-2-oxo-ethyl]-dimethyl-sulfonium bromide (1h)]: the IC50 (usually the concentration at which inhibition is half-maximal) in test [1] was greater than 10 µM; in test [2] it was greater than 100 µM; in test [3] it was greater than 100 µM.

In the case of `C=CC(=O)NCC(=O)N1CCN(C(=O)OCC23CC4CC(CC(C4)C2)C3)CC1` [1-Adamantylmethyl 4-[2-(prop-2-enoylamino)acetyl]piperazine-1-carboxylate (3f)], the values for the IC50 in test [1], in test [2] and in test [3] were greater than 10 µM, greater than 100 µM and greater than 100 µM, respectively.

For the molecule `C[S+](C)CC(=O)NCC(=O)N1CCN(C(=O)OCC23CC4CC(CC(C4)C2)C3)CC1` [[2-[[2-[4-(1-Adamantylmethoxycarbonyl)piperazin-1-yl]-2-oxo-ethyl]amino]-2-oxoethyl]-dimethyl-sulfonium bromide (1f)], the half-inhibitory concentration (IC50) in test [4] is 775 nM; in test [1], greater than 10 µM; in test [2], greater than 100 µM; in test [3], greater than 100 µM.

Turning to `C[S+](C)CC(=O)NCC(=O)N1CCN(C(=O)C23CC4CC(CC(C4)C2)C3)CC1` [[2-[[2-[4-(Adamantane-1-carbonyl)piperazin-1-yl]-2-oxo-ethyl]amino]-2-oxo-ethyl]-dimethyl-sulfonium bromide (1e)], the half-inhibitory concentration (IC50) in test [4] was 889 nM; in test [1], greater than 10 µM; in test [2] it was greater than 100 µM; in test [3], greater than 100 µM.

Consider `C=CC(=O)NCC(=O)N1CCN(C(=O)C23CC4CC(CC(C4)C2)C3)CC1` [N-[2-[4-(adamantane-1-carbonyl)piperazin-1-yl]-2-oxo-ethyl]prop-2-enamide (3e)], for which the half-inhibitory concentration (IC50) was found to be 125 nM in test [4], 2 µM in test [1], 11 µM in test [2] and 2.2 µM in test [3].
